From US20240279205A1, “NOVEL BENZIMIDAZOLE DERIVATIVE” (Carna Biosciences, Inc., priority 2020, published 2024)

Experiments:
human STING (hSTING) = target: T1, human STING (hSTING) (Homo sapiens, UniProt Q86WV6); experiment: Inhibition test of intracellular human STING (hSTING) pathway using SEAP reporter cells (HEK-Blue ISG), stimulation with Compound 3; format: cell-based; design: hSTING inhibitory activity: scale not given here; conditions: Compound 3 10 nM stimulation, 21 hours
T1 construct: host or cells: HEK-Blue ISG cells (HEK293-derived SEAP reporter line)
T1 sequence (Q86WV6 whole entry H232R): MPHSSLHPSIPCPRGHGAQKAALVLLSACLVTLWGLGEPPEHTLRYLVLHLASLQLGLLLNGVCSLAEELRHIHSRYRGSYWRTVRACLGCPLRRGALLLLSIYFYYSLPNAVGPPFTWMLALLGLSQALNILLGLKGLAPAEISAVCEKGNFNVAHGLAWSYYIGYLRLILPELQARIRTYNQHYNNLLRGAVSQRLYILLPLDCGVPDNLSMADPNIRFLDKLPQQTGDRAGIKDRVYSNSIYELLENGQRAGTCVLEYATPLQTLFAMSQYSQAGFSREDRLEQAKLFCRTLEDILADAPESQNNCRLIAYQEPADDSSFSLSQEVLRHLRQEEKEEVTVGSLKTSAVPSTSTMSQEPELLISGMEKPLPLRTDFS
Summary of the method: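 HEK-Blue ISG cells with IRF-inducible SEAP reporter, pretreated 1 h with compound (final 0.1 to 10 μM), then stimulated with Compound 3 (final 10 nM) for 21 h at 37° C. Supernatant SEAP measured colorimetrically; IC50 from log-concentration regression, normalized to stimulated (100%) and unstimulated (0%) controls.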

[1] = test system: STING activation (IFN-β production in THP-1 cells); experiment: Human IFN-β production inhibition test by cGAMP stimulation in THP-1 cells; format: cell-based; design: IFN-β bioinhibitory activity: scale not given here; conditions: 2'3'-cGAMP transfection, 18 hours, IFN-β ELISA; for IC50: Homo sapiens, read-out: IFN-β bioinhibitory activity
Summary of the method: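 PMA-primed (100 nM, overnight) THP-1 cells pretreated 1 h with compound at 0.001 to 1 μM (0.1% DMSO), then transfected with 0.12 μg/well 2′3′-cGAMP and cultured 18 hours. Supernatant IFN-β measured by ELISA; IC50 by regression against log concentration, normalised to cGAMP-only (100%) and unstimulated (0%) controls.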

| Compound | hSTING inhibitory activity (human STING (hSTING)) | IC50 [1] [nM] | IFN-β bioinhibitory activity [1] |
| --- | --- | --- | --- |
| OCCn1c(Nc2c[nH]c3ccc(Cl)cc23)nc2cc(OC(F)(F)F)ccc21 [Embodiment 245, 2-{2-[(5-Chloro-1H-indol-3-yl)amino]-5-(trifluoromethoxy)-1H-benzo[d]imidazol-1-yl}ethan-1-oar] | * * | 100 to 1000 |  |
| Cn1c(Nc2c[nH]c3ccc(Cl)cc23)nc2cc(C(F)(F)F)cc(Cl)c21 [Embodiment 249, 7-Chloro-N-(5-chloro-1H-indol-3-yl)-1-methyl-5-(trifluoromethyl)-1 H-benzo[d]imidazol-2-amine] | * * * |  | * * |
| Cn1c(Nc2c[nH]c3ccc(Cl)cc23)nc2cc(C(F)(F)F)c(Cl)cc21 [Embodiment 250, 6-Chloro-N-(5-chloro-1H-indol-3-yl)-1-methyl-5-(trifluoromethyl)-1H-benzo[d]imidazol-2-amine] | * * |  | * * |
| C#CCn1c(Nc2c[nH]c3ccc(Cl)cc23)nc2cc(OC(F)(F)F)ccc21 [Embodiment 253, N-(5-Chloro-1H-indol-3-yl)-1-(prop-2-yn-1-yl)-5-(trifluoromethoxy)-1H-benzo[d]imidazole-2-amine] | * * * |  | * * |
| Cn1c(Nc2c[nH]c3ccc(Cl)cc23)nc2cc(C(F)(F)F)c(F)cc21 [Embodiment 254, N-(5-Chloro-1H-indol-3-yl)-6-fluoro-1-methyl-5-(trifluoromethyl)-1H-benzo[d]imidazol-2-amine] | * * * |  | * * |
| Cc1ccc2[nH]cc(Nc3nc4cc(C(F)(F)F)cc(F)c4n3C)c2c1 [Embodiment 256, 7-fluoro-1-methyl-N-(5-methyl-1H-indol-3-yl)-5-(trifluoromethyl)-1H-benzo[d]imidazol-2-amine] | * * * |  | * * |
| Cn1c(Nc2c[nH]c3ccc(C#N)cc23)nc2cc(C(F)(F)F)cc(F)c21 [Embodiment 257, 3-{ [7-fluoro-1-methyl-5-(trifluoro methyl)-1H-benzo[d]imidazol-2-yl]amino}-1H-indole-5-carbonitrile] | * * * |  | * * |
| Cn1c(Nc2c[nH]c3cc(F)c(F)cc23)nc2cc(C(F)(F)F)cc(F)c21 [Embodiment 261, N-(5,6-difluoro-1H-indol-3-yl)-7-fluoro-1-methyl-5-(trifluoromethyl)-1H-benzo[d]imidazol-2-amine] | * * * |  | * * |
| Cn1c(Nc2c[nH]c3cc(F)c(Cl)cc23)nc2cc(C(F)(F)F)ccc21 [Embodiment 262, N-(5-Chloro-6-fluoro-1H-indol-3-yl)-1-methyl-5-(trifluoromethyl)-1 H-benzo[d]imidazol-2-amine] | * * * |  | * * |
| COc1cc2c(cc1C(F)(F)F)nc(Nc1c[nH]c3ccc(Cl)cc13)n2C [Embodiment 263, N-(5-Chloro-1H-indol-3-yl)-6-methoxy-1-methyl-5-(trifluoromethyl)-1H-benzo[d]imidazol-2-amine] | * * | 100 to 1000 |  |
| Cn1c(Nc2c[nH]c3ccc(Cl)cc23)nc2cc(C(F)(F)F)cc(C#N)c21 [Embodiment 264, 2-[(5-Chloro-1H-indol-3-yl)amino]-1-methyl-5-(trifluoromethyl)-1H-benzo[d]imidazole-7-carbonitrile] | * * * | 100 to 1000 |  |
| Fc1cc(C(F)(F)F)cc2nc(Nc3c[nH]c4ccc(Cl)cc34)[nH]c12 [Embodiment 267, N-(5-Chloro-1H-indol-3-yl)-7-fluoro-5-(trifluoromethyl)-1H-benzo [d]imidazol-2-amine] | * * | 100 to 1000 |  |
| Nn1c(Nc2c[nH]c3ccc(Cl)cc23)nc2cc(C(F)(F)F)cc(F)c21 [Embodiment 269, N2-(5-Chloro-1H-indol-3-yl)-7-fluoro-5-(trifluoromethyl)-1H-benzo[d]imidazole-1,2-diamine] | * * * |  | * * |
| Brc1ccc2[nH]cc(Nc3nc4cc(Oc5ccccc5)ccc4[nH]3)c2c1 [Example 3, N-(5-bromo-1H-indol-3-yl)-5-phenoxy-1H-benzo[d]imidazol-2-amine] | * * |  | * * |
| Clc1ccc2[nH]c(Nc3c[nH]c4ccc(Br)cc34)nc2c1 [Example 4, N-(5-bromo-1H-indol-3-yl)-5-chloro-1H-benzo[d]imidazol-2-amine] | * * * |  | * * |
| COc1ccc2[nH]c(Nc3c[nH]c4ccc(Br)cc34)nc2c1 [Example 6, N-(5-bromo-1H-indol-3-yl)-5-methoxy-1H-benzo[d]imidazol-2-amine] | * * | 100 to 1000 |  |
| Brc1ccc2[nH]c(Nc3c[nH]c4ccc(Br)cc34)nc2c1 [Example 7, 5-bromo-N-(5-bromo-1H-indol-3-yl)-1H-benzo[d]imidazol-2-amine] | * * * |  | * * |
| FC(F)(F)c1ccc2[nH]c(Nc3c[nH]c4ccc(Br)cc34)nc2c1 [Example 8, N-(5-bromo-1H-indol-3-yl)-5-(trifluoromethyl)-1H-benzo[d]imidazol-2-amine] | * * |  | * * |
| Brc1ccc2[nH]cc(Nc3nc4cc(Oc5ccccc5)ccc4[nH]3)c2n1 [Example 12, N-(5-bromo-1H-pyrrolo[3,2-b]pyridin-3-yl)-5-phenoxy-1H-benzo[d]imidazol-2-amine] | * * | 100 to 1000 |  |
| Cn1c(Nc2c[nH]c3ccc(Br)cc23)nc2ccccc21 [Example 18, N-(5-bromo-1H-indol-3-yl)-1-methyl-1H-benzo[d]imidazol-2-amine] | * * | ≥ 1000 |  |

Further lines, with some results ahead:

| hSTING inhibitory activity (human STING (hSTING)) | IC50 [1] [nM] | Compound | IFN-β bioinhibitory activity [1] |
| --- | --- | --- | --- |
| * * * |  | Cn1c(Nc2c[nH]c3ccc(Cl)cc23)nc2cc(OC(F)(F)F)ccc21 [Embodiment 246, N-(5-Chloro-1H-indol-3-yl)-1-methyl-5-(trifluoromethoxy)-1H-benzo[d]imidazol-2-amine] | * * * |
| * * | 100 to 1000 | FC(F)(F)c1ccc2c(c1)nc(Nc1c[nH]c3ccc(Cl)cc13)n2N1CCCC1 [Embodiment 247, N-(5-Chloro-1H-indol-3-yl)-1-(pyrrolidin-1-yl)-5-(trifluoromethyl)-1H-benzo[d]imidazol-2-amine] |  |
| * * * |  | Cc1cc(C(F)(F)F)cc2nc(Nc3c[nH]c4ccc(Cl)cc34)n(C)c12 [Embodiment 248, N-(5-Chloro-1H-indol-3-yl)-1,7-dimethyl-5-(trifluoromethyl)-1H-benzo[d]imidazol-2-amine] | * * |
| * * * |  | CCn1c(Nc2c[nH]c3ccc(Cl)cc23)nc2cc(OC(F)(F)F)ccc21 [Embodiment 251, N-(5-Chloro-1H-indol-3-yl)-1-ethyl-5-(trifluoromethoxy)-1H-benzo [d]imidazol-2-amine] | * * |
| * * * |  | CNn1c(Nc2c[nH]c3ccc(Cl)cc23)nc2cc(C(F)(F)F)ccc21.Cl [Embodiment 255, N2-(5-Chloro-1H-indol-3-yl)-N1-methyl-5-(trifluoromethyl)-1H-benzo[d]imidazole-1,2-diamine hydrochloride] | * * |
| * * * |  | CN(C)n1c(Nc2c[nH]c3ccc(Cl)cc23)nc2cc(OC(F)(F)F)ccc21 [Embodiment 258, N2-(5-Chloro-1H-indol-3-yl)-N1, N1-dimethyl-5-(trifluoromethoxy)-1H-benzo[d]imidazole-1,2-diamine] | * * |
| * * | 100 to 1000 | N#CCCn1c(Nc2c[nH]c3ccc(Cl)cc23)nc2cc(C(F)(F)F)ccc21 [Embodiment 259, 3-{2-[(5-chloro-1H-indol-3-yl)amino]-5-(trifluoromethyl)-1H-benzo [d]imidazol-1-yl]propanenitrile] |  |
| * * | 100 to 1000 | OCCCn1c(Nc2c[nH]c3ccc(Cl)cc23)nc2cc(C(F)(F)F)ccc21 [Embodiment 260, 3-{2-[(5-Chloro-1H-indol-3-yl)amino]-5-(trifluoromethyl)-1H-benzo [d]imidazol-1-yl]propan-1-oar] |  |
| * * * |  | CN(C)n1c(Nc2c[nH]c3ccc(Cl)cc23)nc2cc(Cl)ccc21 [Embodiment 265, 5-Chloro-N2-(5-chloro-1H-indol-3-yl)-N1,N1-dimethyl-1H-benzo [d]imidazole-1,2-diamine] | * * |
| * * | 100 to 1000 | CN(C)n1c(Nc2c[nH]c3ccc(Cl)cc23)nc2ccc(C(F)(F)F)cc21 [Embodiment 266, N2-(5-Chloro-1H-indol-3-yl)-N1, N1-dimethyl-6-(trifluoromethyl)-1H-benzo[d]imidazole-1,2-diamine] |  |
| * * |  | FC(F)(F)c1ccc2[nH]c(Nc3c[nH]c4ccc(Cl)cc34)nc2c1 [Embodiment 268, N-(5-Chloro-1H-indol-3-yl)-5-(trifluoromethyl)-1H-benzo[d]imidazol-2-amine] | * * |
